Assay [1] deals with T1, human dopamine D1 receptor (Homo sapiens, UniProt P21728).
T1 construct: A 1.4 Kb Hind III to Xho I fragment was subcloned into the vector pMMLV; expressed in transfected cells; host or cells: CHO cells, clone CHO-D1M#9 (plasmid pHD1MMLV), membranes
The experiment in a line: [3H]-SCH-23390 binding to cloned human dopamine D1 receptors (CHO cell membranes). To be noted: competitive binding, [3H]-SCH-23390, cloned human D1 in CHO membranes; read-out: D1 affinity Ki. How it is done: [^3H]-SCH-23390 Binding to Cloned Human Dopamine D1 Receptors
Determination of relative binding affinity of potential neuropsychiatric and other agents for the human dopamine D1 receptor.
The human D, cDNA was obtained from the laboratory of Dr. Marc Caron in the vector pCMV5. A 1.4 Kb Hind III to Xho I fragment was subcloned into the vector pMMLV. The plasmid pHD1MMLV was then sequenced completely. Transient transfections in COS-7 cells were performed and D1 specific binding was obtained. The construct pHD1MMLV was then transfected stably into CHO cells and 72 G418-resistant clones were isolated. High expressors were identified by mRNA dot blot analysis. Six high expressors were further characterized by binding and then clone CHO-D1M#9 was chosen for detailed pharmacological characterization. This clone was then grown in suspension culture for the purpose of obtaining enough protein to accommodate several months of screening.
B. Cell Culture Conditions
• 1. […] Cells are transferred to suspension culture when at least […] are available (this allows for 300,000 cells/ml in a 50 ml spinner flask; this is the ideal suspension density). Cells are removed from flasks with trypsin, spun down at 1000×G and resuspended the pellet in fresh medium: • 50% CHO-SFM-II+50% Ham's F12 w/10% FBS (final FBS conc. 5%)+400 μg/ml G418+1% P/S. • 3. After the transfer to suspension culture, growth is monitored and cell viability is assessed using trypan blue exclusion. Total and viable cell count on 5 sectors of the hemocytometer are recorded. When the viable cell density reaches 600,000 cell/ml, the volume is doubled. • 4. After 1 week of growth in the 50/50 medium, the cells are spun down and transferred to a new spinner flask and replaced with 75% CHO-SFM II/25% Ham's F12+10% FBS plus the pen-strep and G418. Thereafter every 3 days, the medium is replaced with new medium containing a decreasing amount of FBS as follows:
• 5. The final maintenance culturing medium is made up as follows: • A stock mixture of 10 ml of pen-strep, 0.5 ml of […] (active; final concentration: 200 μg/ml) G418 and 1 ml of FBS are mixed and filtered and refrigerated. A volume (11.5 ml) of this mixture is added to a freshly opened 1 L bottle of CHO-SFM II. C. Membrane Preparation
Cells are harvested into 250 ml centrifuge tubes and spun down at 1200×G. The medium is removed and 100 ml PBS (phosphate-buffered saline) is added to each centrifuge tube; cells are resuspended and spun down again. The PBS is removed and the final pellet is homogenized with a polytron on ice at a medium setting.
The membrane suspension is diluted in water and samples (10, 50 and 100 μl; q.s. to 100 μl with water) are diluted with 100 μl of 1% SDS. The sample is vortexed and allowed to stand for 5 min. Two aliquots each of the solubilized protein sample are placed in clean 13×100 test tubes for the assay. Instructions are followed as outlined in the BioRad DC protein determination kit (Catalog # 500-0112). OD readings that fall between 0.1-0.5 (mid-range of standard curve) should typically be used for calculations. Protein concentrations are calculated from a standard curve using bovine serum albumin as standard by linear regression and interpolation.
Following cell harvesting and protein determination, the homogenate is diluted with 10% DMSO to the correct volume based on Bmax and relative size of individual experiments to be conducted. The concentrated protein is stored in cryogenic vials in aliquots of 1-1.5 ml. Samples may be stored in −80° C. freezer or in liquid nitrogen.

In assay [2] the target is human dopamine D2Long (D2L) receptors (Homo sapiens, UniProt P14416).
Protocol: [N-Methyl-^3H]Spiroperidol Binding to Cloned Human Dopamine D2Long Receptors
This assay measures the in vitro activity of drugs on cloned human dopamine D2Long (D2L) receptors and predicts the direct dopamine-displacing properties of neuropsychiatric, cardiovascular and renal agents at human dopamine D2 receptors.
Cells were maintained in Ham's F12+10% Fetal Bovine Serum+Penicillin/Streptomycin (100 U/ml/100 μg/ml)+G418 (400 μg/ml) medium and were split using Trypsin-EDTA (1 ml/plate, room temperature for ˜2 min. or until cells have lifted off plates). • 2. […] Plates are incubated at 37° C.+5% CO2 for ˜3 days or until cells were confluent.
Cells are harvested by mechanical scraping, washed using PBS collected in 250 ml Corning polypropylene centrifuge tubes, spun down and resuspended in dH2O (final volume per harvest approximately 60 ml). Protein determination is made according to the method of Lowry (Biorad DC Assay Kit). Following the determination of the protein concentration, the protein is diluted into distilled water with 10% DMSO to the appropriate volume based on expression levels (Bmax). The concentrated protein is aliquoted into 1.5 ml screw top eppendorf tubes and placed into a −80° C. freezer.
Assay Requirement: 1 cryovial per two 96 well plates
0.5M Tris Wash Buffer, pH 7.7 • a) 44.4 g Tris HCl • 26.5 g Tris Base • q.s. to 1 Liter (0.5 M Tris buffer, pH 7.7 at 37° C.) • b) make a 1:10 dilution in distilled H2O (0.05 M. Tris buffer, pH 7.7) • 2. Tris Buffer containing physiological salts • a) Stock buffer • NaCl 7.014 g • KCl 0.372 g • CaCl2 0.222 g • MgCl2 0.204 g • q.s. To 100 ml with 0.5 M. Tris Buffer • b) Dilute 1:10 in distilled H2O • This yields 0.05 M. Tris HCl, pH 7.7, containing NaCl (120 mM), KCl (5 mM), CaCl2 (2 mM) and MgCl2 (1 mM) • Optional: add 0.1% ascorbic acid and check pH (in assays with compounds that may oxidize. • c) 1.0% polyethyleneimine stock in 0.5M Tris (reagent 1.a) • Dilute 1:10 in distilled H2O Binding Assay • 750 μl Tissue • 150 μl [^3H]NMSP • 100 μl vehicle (for total binding) or 30 μM (−)
eticlopride (for nonspecific binding) or appropriate drug concentration.
The 96-Well Packard Unifilters GF/B are incubated for >1 h at 25° C. in 0.1% polyethylenimine. The cold tissue is added last and mixed on a orbital shaker for a few seconds and is then incubated at 37° C. for 30 min in a shaking water bath. The assay is stopped by rapid filtration through Packard Unifilter plates. The filter membranes are then washed with 15 ml of ice-cold 0.05 M Tris buffer. The filters are then dried (˜15 min. under a heat lamp or incubated for 15 min. in a 60° C. oven) and a bottom seal is applied. Then 40 μl of Packard Microscint 20 scintillation cocktail are added and a permanent topseal (Type P) is applied and heat sealed. The plates are placed in a Packard Topcount.
Specific binding is defined as the difference between total binding and the binding in the presence of 3 μM S-(−)-eticlopride. Total binding is approximately 10% of the total added ligand. […] The percent inhibition at each drug concentration is the mean of duplicate determinations.

Counter-ions that a name gives are not always drawn.

Experimental findings from patent publication US7919508B2, “3-piperidinylisochroman-5-ols as dopamine agonists” (Aventis Pharmaceuticals Inc., priority 2004, dated 2011) are described below.

T1 sequence (P21728 whole entry, the tested form may be a part): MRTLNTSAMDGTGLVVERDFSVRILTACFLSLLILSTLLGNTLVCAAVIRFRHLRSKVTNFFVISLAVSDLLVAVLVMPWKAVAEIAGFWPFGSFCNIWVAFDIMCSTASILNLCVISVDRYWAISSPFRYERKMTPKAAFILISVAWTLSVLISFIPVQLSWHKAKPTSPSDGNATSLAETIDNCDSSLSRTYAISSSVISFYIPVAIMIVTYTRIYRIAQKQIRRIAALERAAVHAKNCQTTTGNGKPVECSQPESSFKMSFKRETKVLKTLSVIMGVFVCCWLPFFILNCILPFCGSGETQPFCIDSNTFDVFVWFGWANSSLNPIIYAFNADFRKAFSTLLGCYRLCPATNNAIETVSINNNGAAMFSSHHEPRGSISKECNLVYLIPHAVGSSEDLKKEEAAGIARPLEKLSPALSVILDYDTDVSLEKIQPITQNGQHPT
human dopamine D2Long (D2L) receptors, sequence (P14416 whole entry): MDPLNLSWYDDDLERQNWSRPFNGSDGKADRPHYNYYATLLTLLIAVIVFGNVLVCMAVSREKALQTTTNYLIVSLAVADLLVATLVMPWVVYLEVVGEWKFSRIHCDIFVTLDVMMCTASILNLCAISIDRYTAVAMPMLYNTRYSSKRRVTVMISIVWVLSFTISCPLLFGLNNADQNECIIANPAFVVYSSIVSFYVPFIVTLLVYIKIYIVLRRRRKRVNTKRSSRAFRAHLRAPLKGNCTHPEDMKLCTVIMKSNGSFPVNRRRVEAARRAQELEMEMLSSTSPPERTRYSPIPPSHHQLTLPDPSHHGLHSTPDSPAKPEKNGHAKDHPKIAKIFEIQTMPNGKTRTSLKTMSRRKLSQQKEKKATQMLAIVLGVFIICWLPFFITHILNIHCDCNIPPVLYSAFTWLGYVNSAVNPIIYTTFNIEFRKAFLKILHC

In the case of `Cc1ccc2c(c1O)C[C@@H](C1CCN(Cc3cccc(C(F)(F)F)c3Cl)CC1)O[C@H]2CN` [Example 79, (1R,3S)-1-Aminomethyl-3-[1-(2-chloro-3-trifluoromethyl-benzyl)-piperidin-4-yl]-6-methyl-isochroman-5-ol dihydrochloride], the Ki in assay [1] was found to be 0.081 µM; in assay [2], 0.31 µM.
With `C=CCN(CC=C)C[C@@H]1O[C@H](C2CCN(CC(=O)c3ccccc3)CC2)Cc2c1ccc(C)c2O` [Example 180, 2-[4-((1R,3S)-1-Diallylaminomethyl-5-hydroxy-6-methyl-isochroman-3-yl)-piperidin-1-yl]-1-phenyl-ethanone], the Ki was determined as 0.642 µM in assay [1] and 0.086 µM in assay [2].
For the compound `Cc1ccc2c(c1O)C[C@@H](C1CCN(Cc3ccccc3C(F)(F)F)CC1)O[C@H]2CN` [Example 72, (1R,3S)-1-Aminomethyl-6-methyl-3-[1-(2-trifluoromethyl-benzyl)-piperidin-4-yl]-isochroman-5-ol dihydrochloride], the Ki in assay [1] amounted to 0.159 µM; in assay [2], 0.266 µM.
For `COc1ccccc1CN1CCC([C@@H]2Cc3c(ccc(C)c3O)[C@H](CN)O2)CC1` [Example 68, (1R,3S)-1-Aminomethyl-3-[1-(2-methoxy-benzyl)-piperidin-4-yl]-6-methyl-isochroman-5-ol dihydrochloride], the Ki in assay [1] was 0.0967 µM; in assay [2], 0.232 µM.
In the case of `Cc1ccc2c(c1O)C[C@@H](C1CCN(S(=O)(=O)C[C@]34CC[C@H](CC3=O)C4(C)C)CC1)O[C@H]2CN` [Example 163, 1(S)-[4-((1R,3S)-1-Aminomethyl-5-hydroxy-6-methyl-isochroman-3-yl)-piperidine-1-sulfonylmethyl]-7,7-dimethyl-bicyclo[2.2.1]heptan-2-one hydrochloride], the inhibitory constant (Ki) in assay [1] is 0.32 µM; in assay [2], at least 100 µM.
Turning to `Cc1ccc2c(c1O)C[C@@H](C1CCN(S(=O)(=O)c3ccccc3C(F)(F)F)CC1)O[C@H]2CN` [Example 143, (1R,3S)-1-Aminomethyl-6-methyl-3-[1-(2-trifluoromethyl-benzenesulfonyl)-piperidin-4-yl]-isochroman-5-ol hydrochloride], the inhibition constant (Ki) is 0.167 µM in assay [1] and 0.777 µM in assay [2].
As to `Cc1ccc2c(c1O)C[C@@H](C1CCN(S(=O)(=O)c3ccc(Cl)cc3Cl)CC1)O[C@H]2CN` [Example 149, (1R,3S)-1-Aminomethyl-3-[1-(2,4-dichloro-benzenesulfonyl)-piperidin-4-yl]-6-methyl-isochroman-5-ol hydrochloride], the Ki in assay [1] is 0.213 µM; in assay [2], 0.589 µM.
For `Cc1ccc2c(c1O)C[C@@H](C1CCN(S(=O)(=O)c3ccc(C(C)C)cc3)CC1)O[C@H]2CN` [Example 145, (1R,3S)-1-Aminomethyl-3-[1-(4-isopropyl-benzenesulfonyl)-piperidin-4-yl]-6-methyl-isochroman-5-ol hydrochloride] the same measures were 0.146 µM and 0.288 µM.
For the compound `Cc1ccc2c(c1O)C[C@@H](C1CCN(C(=O)Nc3ccccc3O)CC1)O[C@H]2CN` [Example 127, 4-((1R,3S)-1-Aminomethyl-5-hydroxy-6-methyl-isochroman-3-yl)-piperidine-1-carboxylic acid (2-hydroxy-phenyl)-amide hydrochloride], the Ki in assay [1] was 0.105 µM; in assay [2] it was at least 10 µM.
For the compound `CCS(=O)(=O)N1CCC([C@@H]2Cc3c(ccc(C)c3O)[C@H](CN)O2)CC1` [Example 153, (1R,3S)-1-Aminomethyl-3-(1-ethanesulfonyl-piperidin-4-yl)-6-methyl-isochroman-5-ol hydrochloride], the Ki in assay [1] is 0.25 µM; in assay [2], at least 100 µM.
For `Cc1ccc2c(c1O)C[C@@H](C1CCN(C(=O)N(C)C)CC1)O[C@H]2CN` [Example 132, 4-((1R,3S)-1-Aminomethyl-5-hydroxy-6-methyl-isochroman-3-yl)-piperidine-1-carboxylic acid dimethylamide hydrochloride], the Ki in assay [1] is 0.256 µM; in assay [2], at least 100 µM.
For the compound `Cc1ccc2c(c1O)C[C@@H](C1CCN(CCC(C)NC(=O)c3ccc([N+](=O)[O-])cc3)CC1)O[C@H]2CN` (stereo partly drawn) [Example 24, N-{3-[4-((1R,3S)-1-Aminomethyl-5-hydroxy-6-methyl-isochroman-3-yl)-piperidin-1-yl]-1-methyl-propyl}-4-nitro-benzamide dihydrochloride], the Ki in assay [1] was 0.24 µM; in assay [2], 0.638 µM.
On to `CCCN(C)C[C@@H]1O[C@H](C2CCN(Cc3ccccc3)CC2)Cc2c1ccc(C)c2O` [Example 175, (1R,3S)-3-(1-Benzyl-piperidin-4-yl)-6-methyl-1-[(methyl-propyl-amino)-methyl]-isochroman-5-ol], for which the Ki in assay [1] was 3.07 µM; in assay [2], at least 10 µM.
In the case of `Cc1ccc2c(c1O)C[C@@H](C1CCN(CCC(C)NC(=O)c3ccc(-c4ccccc4)cc3)CC1)O[C@H]2CN` (stereo partly drawn) [Example 18, Biphenyl-4-carboxylic acid {3-[4-((1R,3S)-1-aminomethyl-5-hydroxy-6-methyl-isochroman-3-yl)-piperidin-1-yl]-1-methyl-propyl}-amide dihydrochloride], the Ki in assay [1] came out at 0.244 µM; in assay [2], 0.389 µM.
Take `CCCCCCCCS(=O)(=O)N1CCC([C@@H]2Cc3c(ccc(C)c3O)[C@H](CN)O2)CC1` [Example 156, (1R,3S)-1-Aminomethyl-6-methyl-3-[1-(octane-1-sulfonyl)-piperidin-4-yl]-isochroman-5-ol hydrochloride]: the Ki in assay [1] was 0.139 µM; in assay [2], at least 100 µM.
On to `CCC(NC(=O)c1ccc(C)cc1)C(C)CN1CCC([C@@H]2Cc3c(ccc(C)c3O)[C@H](CN)O2)CC1` (stereo partly drawn) [Example 14, N-{3-[4-((1R,3S)-1-Aminomethyl-5-hydroxy-6-methyl-isochroman-3-yl)-piperidin-1-yl]-1-ethyl-2-methyl-propyl}-4-methyl-benzamide dihydrochloride], for which the Ki in assay [1] is 0.274 µM; in assay [2], at least 100 µM.
As to `Cc1ccc2c(c1O)C[C@@H](C1CCN(Cc3cc(C(F)(F)F)ccc3F)CC1)O[C@H]2CN` [Example 81, (1R,3S)-1-Aminomethyl-3-[1-(2-fluoro-5-trifluoromethyl-benzyl)-piperidin-4-yl]-6-methyl-isochroman-5-ol dihydrochloride], the values for the Ki in assay [1] and in assay [2] were 0.0287 µM and 0.343 µM, respectively.
